The source of these data is the NIST ThermoML archive (doi:10.1016/j.jct.2005.07.016).

Molecules are shown by their SMILES. Numbers after ± are expanded uncertainties.

For series [1] the following is noted: Liquid.
Series [2] can be described thus: refractive index (Na D-line) (dimensionless). As to conditions: 298.15 K; 101.33 kPa; Liquid; Standard Abbe refractometry.

By vapor or sublimation pressure is commonly meant the pressure of vapour in equilibrium with the condensed phase. Usually refractive index stands for a measure of how strongly the sample bends light. As to `CC(Cl)(Cl)Cl` [1,1,1-trichloroethane], the “vapor or sublimation pressure” value in series [1] (298.15 K) is given as 16.69 ± 0.35 kPa; in series [1] (303.15 K) it was 20.34 ± 0.41 kPa; in series [1] (308.15 K) it was 25.22 ± 0.49 kPa; in series [1] (313.15 K), 30.78 ± 0.57 kPa. For the same compound, the refractive index in series [2] is reported as 1.4354 ± 0.0007.
Regarding `O=C1CCCC1` [cyclopentanone], the “vapor or sublimation pressure” value in series [1] (291.95 K) turned out to be 1.16 ± 0.1 kPa; in series [1] (295.15 K), 1.5 ± 0.1 kPa; in series [1] (298.15 K), 1.61 ± 0.33 kPa; in series [1] (299.35 K), 1.65 ± 0.11 kPa; in series [1] (303.15 K) it was 2.03 ± 0.11 kPa; in series [1] (307.05 K), 2.6 ± 0.12 kPa. For the same compound, the “vapor or sublimation pressure” value in series [1] (308.15 K) is 2.68 ± 0.38 kPa; in series [1] (310.45 K), 3 ± 0.13 kPa; in series [1] (313.15 K) it was 3.41 ± 0.13 kPa; in series [1] (316.75 K) it was 4.03 ± 0.14 kPa. Further, the refractive index in series [2] was found to be 1.4347 ± 0.0007.
For `ClCCCl` [1,2-dichloroethane], the “vapor or sublimation pressure” value is recorded as 8.09 ± 0.21 kPa in series [1] (292.85 K); 9.23 ± 0.23 kPa in series [1] (295.55 K); 10.47 ± 0.25 kPa in series [1] (298.15 K); 12.81 ± 0.29 kPa in series [1] (302.35 K); 13.34 ± 0.91 kPa in series [1] (303.15 K); 15.46 ± 0.33 kPa in series [1] (306.25 K). The “vapor or sublimation pressure” value in series [1] (308.15 K) is 16.77 ± 1.1 kPa; in series [1] (309.95 K) it was 18.17 ± 0.37 kPa; in series [1] (313.15 K), 20.88 ± 1.3 kPa; in series [1] (313.65 K), 21.29 ± 0.42 kPa. For the same compound, in series [2], the refractive index is 1.4421 ± 0.0007.
